| Structure (SMILES) | melting point |
| --- | --- |
| COc1c(N2CCC(N(C)C)C(C)(C)C2)c(F)cc2c(=O)c(C(=O)O)cn(C3CC3)c12 (stereo not drawn) [Compound 38, 1-Cyclopropyl-6-fluoro-1,4-dihydro-8-methoxy-7-(4-dimethylamino-3,3-dimethyl-1-piperidinyl)-4-oxo-quinoline-3-carboxylic acid] | 210 °C |
| CCC1(C)CN(c2c(F)cc3c(=O)c(C(=O)O)cn(C4CC4)c3c2OC)CCC1N (stereo not drawn) [Compound 39, 1-Cyclopropyl-6-fluoro-1,4-dihydro-8-methoxy-7-(4-amino-3-ethyl-3-methyl-1-piperidinyl)-4-oxo-quinoline-3-carboxylic acid] | 152 to 154 °C |
| CCC1(C)CN(c2c(F)cc3c(=O)c(C(=O)O)cn(C4CC4)c3c2OC)CCC1NC (stereo not drawn) [Compound 40, 1-Cyclopropyl-6-fluoro-1,4-dihydro-8-methoxy-7-(4-methylamino-3-ethyl-3-methyl-1-piperidinyl)-4-oxo-quinoline-3-carboxylic acid] | 182 to 184 °C |
| CCC1(C)CN(c2c(F)cc3c(=O)c(C(=O)O)cn(C4CC4)c3c2OC)CCC1NC1CC1 (stereo not drawn) [Compound 41, 1-Cyclopropyl-6-fluoro-1,4-dihydro-8-methoxy-7-(4-cyclopropylamino-3-ethyl-3-methyl-1-piperidinyl)-4-oxo-quinoline-3-carboxylic acid] | 210 to 212 °C |
| CCC1(C)CN(c2c(F)cc3c(=O)c(C(=O)O)cn(C4CC4)c3c2OC)CCC1N(C)C (stereo not drawn) [Compound 42, 1-Cyclopropyl-6-fluoro-1,4-dihydro-8-methoxy-7-(4-dimethylamino-3-ethyl-3-methyl-1-piperidinyl)-4-oxo-quinoline-3-carboxylic acid] | 210 to 212 °C |
| COc1c(N2CC(C)C(N)C(C)C2)c(F)cc2c(=O)c(C(=O)O)cn(C3CC3)c12 (stereo not drawn) [Compound 44, 1-Cyclopropyl-6-fluoro-1,4-dihydro-8-methoxy-7-(4-amino-3,5-dimethyl-1-piperidinyl)-4-oxo-quinoline-3-carboxylic acid] | 178 to 180 °C |
| CNC1C(C)CN(c2c(F)cc3c(=O)c(C(=O)O)cn(C4CC4)c3c2OC)CC1C (stereo not drawn) [Compound 45, 1-Cyclopropyl-6-fluoro-1,4-dihydro-8-methoxy-7-(4-methylamino-3,5-dimethyl-1-piperidinyl)-4-oxo-quinoline-3-carboxylic acid] | 268 to 272 °C |
| COc1c(N2CC(C)C(N)C(C)(C)C2)c(F)cc2c(=O)c(C(=O)O)cn(C3CC3)c12 (stereo not drawn) [Compound 50, 1-Cyclopropyl-6-fluoro-1,4-dihydro-8-methoxy-7-(4-amino-3,3,5-trimethyl-1-piperidinyl)-4-oxo-quinoline-3-carboxylic acid] | 218 to 220 °C |
| COc1c(N2CCC(N)C(C)C2)c(F)c(N)c2c(=O)c(C(=O)O)cn(C3CC3)c12 (stereo not drawn) [Compound 53, 5-Amino-1-cyclopropyl-6-fluoro-1,4-dihydro-8-methoxy-7-(4-amino-3-methyl-1-piperidinyl)-4-oxo-quinoline-3-carboxylic acid] | 260 to 262 °C |
| CNC1CCN(c2c(F)c(N)c3c(=O)c(C(=O)O)cn(C4CC4)c3c2OC)CC1C (stereo not drawn) [Compound 60, 5-Amino-1-cyclopropyl-6-fluoro-1,4-dihydro-8-methoxy-7-(4-methylamino-3-methyl-1-piperidinyl)-4-oxo-quinoline-3-carboxylic acid] | 228 to 230 °C (dec.) |
| CCNC1CCN(c2c(F)c(N)c3c(=O)c(C(=O)O)cn(C4CC4)c3c2OC)CC1C (stereo not drawn) [Compound 61, 5-Amino-1-cyclopropyl-6-fluoro-1,4-dihydro-8-methoxy-7-(4-ethylamino-3-methyl-1-piperidinyl)-4-oxo-quinoline-3-carboxylic acid] | 230 to 232 °C |
| COc1c(N2CCC(NC3CC3)C(C)C2)c(F)c(N)c2c(=O)c(C(=O)O)cn(C3CC3)c12 (stereo not drawn) [Compound 62, 5-Amino-1-cyclopropyl-6-fluoro-1,4-dihydro-8-methoxy-7-(4-cyclopropylamino-3-methyl-1-piperidinyl)-4-oxo-quinoline-3-carboxylic acid] | 218 to 220 °C |
| COc1c(N2CCC(N(C)C)C(C)C2)c(F)c(N)c2c(=O)c(C(=O)O)cn(C3CC3)c12 (stereo not drawn) [Compound 63, 5-Amino-1-cyclopropyl-6-fluoro-1,4-dihydro-8-methoxy-7-(4-dimethylamino-3-methyl-1-piperidinyl)-4-oxo-quinoline-3-carboxylic acid] | 210 °C |
| COc1c(N2CCC(N)C(C)(C)C2)c(F)c(N)c2c(=O)c(C(=O)O)cn(C3CC3)c12 (stereo not drawn) [Compound 68, 5-Amino-1-cyclopropyl-6-fluoro-1,4-dihydro-8-methoxy-7-(4-amino-3,3-dimethyl-1-piperidinyl)-4-oxo-quinoline-3-carboxylic acid] | 205 °C |
| CNC1CCN(c2c(F)c(N)c3c(=O)c(C(=O)O)cn(C4CC4)c3c2OC)CC1(C)C (stereo not drawn) [Compound 73, 5-Amino-1-cyclopropyl-6-fluoro-1,4-dihydro-8-methoxy-7-(4-methylamino-3,3-dimethyl-1-piperidinyl)-4-oxo-quinoline-3-carboxylic acid] | 250 °C (dec.) |
| CCNC1CCN(c2c(F)c(N)c3c(=O)c(C(=O)O)cn(C4CC4)c3c2OC)CC1(C)C (stereo not drawn) [Compound 74, 5-Amino-1-cyclopropyl-6-fluoro-1,4-dihydro-8-methoxy-7-(4-ethylamino-3,3-dimethyl-1-piperidinyl)-4-oxo-quinoline-3-carboxylic acid] | 205 °C (dec.) |
| COc1c(N2CCC(N(C)C)C(C)(C)C2)c(F)c(N)c2c(=O)c(C(=O)O)cn(C3CC3)c12 (stereo not drawn) [Compound 76, 5-Amino-1-cyclopropyl-6-fluoro-1,4-dihydro-8-methoxy-7-(4-dimethylamino-3,3-dimethyl-1-piperidinyl)-4-oxo-quinoline-3-carboxylic acid] | 178 °C (dec.) |
| CCC1(C)CN(c2c(F)c(N)c3c(=O)c(C(=O)O)cn(C4CC4)c3c2OC)CCC1N (stereo not drawn) [Compound 77, 5-Amino-1-cyclopropyl-6-fluoro-1,4-dihydro-8-methoxy-7-(4-amino-3-ethyl-3-methyl-1-piperidinyl)-4-oxo-quinoline-3-carboxylic acid] | 210 °C (dec.) |
| CCC1(C)CN(c2c(F)c(N)c3c(=O)c(C(=O)O)cn(C4CC4)c3c2OC)CCC1NC (stereo not drawn) [Compound 78, 5-Amino-1-cyclopropyl-6-fluoro-1,4-dihydro-8-methoxy-7-(4-methylamino-3-ethyl-3-methyl-1-piperidinyl)-4-oxo-quinoline-3-carboxylic acid] | 164 to 166 °C |
| CCC1(C)CN(c2c(F)c(N)c3c(=O)c(C(=O)O)cn(C4CC4)c3c2OC)CCC1NC1CC1 (stereo not drawn) [Compound 79, 5-Amino-1-cyclopropyl-6-fluoro-1,4-dihydro-8-methoxy-7-(4-cyclopropylamino-3-methyl-3-ethyl-1-piperidinyl)-4-oxo-quinoline-3-carboxylic acid] | 186 to 188 °C |
| CCC1(C)CN(c2c(F)c(N)c3c(=O)c(C(=O)O)cn(C4CC4)c3c2OC)CCC1N(C)C (stereo not drawn) [Compound 80, 5-Amino-1-cyclopropyl-6-fluoro-1,4-dihydro-8-methoxy-7-(4-dimethylamino-3-methyl-3-ethyl-1-piperidinyl)-4-oxo-quinoline-3-carboxylic acid] | 194 to 196 °C |
| CNC1C(C)CN(c2c(F)c(N)c3c(=O)c(C(=O)O)cn(C4CC4)c3c2OC)CC1C (stereo not drawn) [Compound 83, 5-Amino-1-cyclopropyl-6-fluoro-1,4-dihydro-8-methoxy-7-(4-methylamino-3,5-dimethyl-1-piperidinyl)-4-oxo-quinoline-3-carboxylic acid] | 224 to 226 °C |
| COc1c(N2CC(C)C(N)C(C)(C)C2)c(F)c(N)c2c(=O)c(C(=O)O)cn(C3CC3)c12 (stereo not drawn) [Compound 87, 5-Amino-1-cyclopropyl-6-fluoro-1,4-dihydro-8-methoxy-7-(4-amino-3,3,5-trimethyl-1-piperidinyl)-4-oxo-quinoline-3-carboxylic acid] | 248 to 252 °C |
| CNC1CCN(c2c(F)cc3c(=O)c(C(=O)O)cn(C4CC4)c3c2C)CC1C (stereo not drawn) [Compound 113, 1-Cyclopropyl-6-fluoro-1,4-dihydro-8-methyl-7-(4-methylamino-3-methyl-1-piperidinyl)-4-oxo-quinoline-3-carboxylic acid] | 233 to 235 °C |
| CCNC1CCN(c2c(F)cc3c(=O)c(C(=O)O)cn(C4CC4)c3c2C)CC1(C)C (stereo not drawn) [Compound 115, 1-Cyclopropyl-6-fluoro-1,4-dihydro-8-methyl-7-(4-ethylamino-3,3-dimethyl-1-piperidinyl)-4-oxo-quinoline-3-carboxylic acid] | 201 to 203 °C |
| Cc1c(N2CCC(N(C)C)C(C)(C)C2)c(F)cc2c(=O)c(C(=O)O)cn(C3CC3)c12 (stereo not drawn) [Compound 116, 1-Cyclopropyl-6-fluoro-1,4-dihydro-8-methyl-7-(4-dimethylamino-3,3-dimethyl-1-piperidinyl)-4-oxo-quinoline-3-carboxylic acid] | 209 to 210 °C |
| CCc1c(N2CCC(N)CC2)c(F)cc2c(=O)c(C(=O)O)cn(C3CC3)c12 [Compound 117, 1-Cyclopropyl-6-fluoro-8-ethyl-7-(4-amino-1-piperidinyl)-1,4-dihydro-4-oxo-quinoline-3-carboxylic acid] | 248 to 249 °C |
| COc1c(N2CCC(O)C(C)C2)c(F)c(N)c2c(=O)c(C(=O)O)cn(C3CC3)c12 (stereo not drawn) [Compound 135, 5-Amino-1-cyclopropyl-6-fluoro-1,4-dihydro-8-methoxy-7-(4-hydroxy-3-methyl-1-piperidinyl)-4-oxo-quinoline-3-carboxylic acid] | 240 to 244 °C |
| CCC1CN(c2c(F)cc3c(=O)c(C(=O)O)cn(C4CC4)c3c2OC)CCC1O (stereo not drawn) [Compound 136, 1-Cyclopropyl-6-fluoro-1,4-dihydro-8-methoxy-7-(4-hydroxy-3-ethyl-1-piperidinyl)-4-oxo-quinoline-3-carboxylic acid] | 188 to 190 °C |
| CCC1CN(c2c(F)c(N)c3c(=O)c(C(=O)O)cn(C4CC4)c3c2OC)CCC1O (stereo not drawn) [Compound 137, 5-Amino-1-cyclopropyl-6-fluoro-1,4-dihydro-8-methoxy-7-(4-hydroxy-3-ethyl-1-piperidinyl)-4-oxo-quinoline-3-carboxylic acid] | 217 to 219 °C |

Reference: patent publication US6878713B2, “Generation triple-targeting, chiral, broad-spectrum antimicrobial 7-substituted piperidino-quinolone carboxylic acid derivatives, their preparation, compositions and use as medicaments” (Wockhardt Limited, priority 2001, dated 2005)
